{"source": "patent EP0497314A1", "about": "“Use of azapirones in attention deficit hyperactivity disorder” (Bristol-Myers Squibb Company, priority 1991, dated 1992)", "key": {"[1]": {"system": "fronto-occipital cortex of the cat", "test": "Quantitative EEG, fronto-occipital cat cortex, subcutaneous administration", "format": "in vivo, cats", "conditions": "for group percent change in electrical energy from pre-drug control, Δ band / mean change ± S.E. in electrical energy from pre-drug control, Δ band / group percent change in electrical energy from pre-drug control, α band / mean change ± S.E. in electrical energy from pre-drug control, α band / group percent change in electrical energy from pre-drug control, β band / mean change ± S.E. in electrical energy from pre-drug control, β band / group percent change in electrical energy from pre-drug control, γ band / mean change ± S.E. in electrical energy from pre-drug control, γ band / group percent change in electrical energy from pre-drug control, θ band / mean change ± S.E. in electrical energy from pre-drug control, θ band: fronto-occipital cat cortex; for group percent change in electrical energy from pre-drug control, Δ band / mean change ± S.E. in electrical energy from pre-drug control, Δ band: Δ = 0.5-3.5 Hz; for group percent change in electrical energy from pre-drug control, α band / mean change ± S.E. in electrical energy from pre-drug control, α band: α= 7-13 Hz; for group percent change in electrical energy from pre-drug control, β band / mean change ± S.E. in electrical energy from pre-drug control, β band: β= 13-25 Hz; for group percent change in electrical energy from pre-drug control, γ band / mean change ± S.E. in electrical energy from pre-drug control, γ band: γ= 25-40 Hz; for group percent change in electrical energy from pre-drug control, θ band / mean change ± S.E. in electrical energy from pre-drug control, θ band: θ= 3.5-7.0 Hz", "from_the_text": "This unique combination of activity may render buspirone useful in the treatment of childhood hyperkinesis which has been reported to respond to both selected phenothiazine and stimulant drugs. • (b) Adult mongrel female cats weighing 2.5-4.0 kg were implanted with EEG recording electrodes. Recording sites were as follows: fronto-occipital cortex, basal amygdala and ventral hippocampus.\nAnimals were individually held in canvas feline restraining bags for EEG recording. The EEG of each brain area was recorded on a separate channel. The instrumentation filtered each channel of EEG and analog data into five distinct frequency bands: Δ=0.5-3.5 Hz, ϑ=3.5-7.0 Hz, α=7-13 Hz, β=13-25 Hz and γ=25-40 Hz. The EEG analyzer then integrated the filtered waveforms and sent pulses to an associated computer at a rate proportional to the electrical energy of each band. Data collecting procedures were essentially the same as reported in Example 1. However, groups of six animals each were used and all drugs were administered subcutaneously in saline solution as their respective salts, but all dosages were calculated as the free base. Recording was started 30 minutes after injection to insure adequate drug absorption for peak activity.\nDrug-induced EEG changes were determined by comparing the post-treatment data to the pre-treatment control in the same animal. Statistical analysis was performed on change from control, in instrument counts, using multiple Student-t-paired-comparison test with P≦0.05 (Table 2). However, for clarity data are also presented as percent change from control (Figures 3, 4 and 5).\nThe data in Table 2 are drug-induced changes resulting from the minimum and higher doses of each compound required to elicit the EEG profile characteristic of that particular drug."}, "[2]": {"system": "rabbit cortex", "test": "Quantitative EEG, rabbit cortex, intravenous administration", "format": "in vivo, rabbits", "conditions": "for group percent change in electrical energy from pre-drug control, Δ band / mean change ± S.E. in electrical energy from pre-drug control, Δ band: Δ = 0.5-3.5 Hz; for group percent change in electrical energy from pre-drug control, α band / mean change ± S.E. in electrical energy from pre-drug control, α band: α= 7-13 Hz; for group percent change in electrical energy from pre-drug control, β band / mean change ± S.E. in electrical energy from pre-drug control, β band: β= 13-25 Hz; for group percent change in electrical energy from pre-drug control, γ band / mean change ± S.E. in electrical energy from pre-drug control, γ band: γ= 25-40 Hz; for group percent change in electrical energy from pre-drug control, θ band / mean change ± S.E. in electrical energy from pre-drug control, θ band: θ= 3.5-7.0 Hz", "procedure": "At least 2 weeks were allowed for recovery before beginning experimentation.\nGroups of four animals each were individually restrained and connected to an EEG amplifier and frequency analyzer. The EEG of each animal was recorded on a separate channel. The instrumentation filtered each channel of EEG analog data into five distinct frequency bands: Δ=0.5-3.5 Hz, ϑ=3.5-7.0 Hz, α=7-13 Hz, β=13-25 Hz and γ=25-40 Hz. The EEG analyzer then integrated the filtered waveforms and sent pulses to an associated computer at a rate proportional to the electrical energy of each band. Thus, one computer print-out provided a cortical EEG profile for the entire group of four rabbits.\nData from a one-hour recording period were collected in four 15-minute periods, which provided additional information concerning both onset and time of peak effect of drug activity. However, in this report only the mean activity of the four data collection periods was considered since onset of drug activity was immediate and duration of action was at least one hour for all drugs studied. Drug-induced EEG changes were determined by comparing the post-treatment print-out to the pretreatment control in the same animal and statistical analysis was performed on change from control, in counts, using multiple Student-t paired-comparison tests with p≦0.05 (Table 1). However, for clarity data are also presented as percent change from control (Figures 1 and 2).\nAll drugs were administered intravenously in saline solution as their respective salts and all dosage calculations were based on the free base. Recording was started immediately after injection and animals were not used more often than once per week. Initial doses were reduced geometrically until a no-effect dose was determined for each drug. However, only the \"no-effect\" data and the data generated from the next higher dose are presented in this report since the shape of the EEG profile is not dose-related, as opposed to the magnitude of the response which is dose-related."}, "[3]": {"conditions": "rabbit cortex, 0.125 mg/kg free base i.v."}, "[4]": {"conditions": "rabbit cortex, 0.25 mg/kg free base i.v."}}, "note": "Where a name gives a salt, the structure may show the parent alone. Marks after values point to notes of the source that are not given here.", "data": [{"smiles": "CN(C)CCCN1c2ccccc2Sc2ccc(Cl)cc21", "note": "[Chlorpromazine HCl, chlorpromazine]", "values": [{"measurement": "minimal effective dose", "setting": "[1]; Felis catus, sc, fronto-occipital cat cortex EEG, dose of free base, read-out: the minimum dose required to produce the EEG profile characteristic of that particular drug", "result": 1, "unit": "mg/kg"}, {"measurement": "the no-effect dose", "setting": "[1]; fronto-occipital cat cortex EEG, dose of free base", "result": "0.5† mg/kg, s.c."}, {"measurement": "group percent change in electrical energy from pre-drug control, Δ band", "setting": "[1]; 0.5 mg/kg free base s.c.", "result": "+6%"}, {"measurement": "mean change ± S.E. in electrical energy from pre-drug control, Δ band", "setting": "[1]; 0.5 mg/kg free base s.c.", "result": "+14 ± 23 instrument counts"}, {"measurement": "group percent change in electrical energy from pre-drug control, Δ band", "setting": "[1]; 1.0 mg/kg free base s.c.", "result": "+25%"}, {"measurement": "mean change ± S.E. in electrical energy from pre-drug control, Δ band", "setting": "[1]; 1.0 mg/kg free base s.c.", "result": "+46 ± 16 instrument counts"}, {"measurement": "group percent change in electrical energy from pre-drug control, Δ band", "setting": "[1]; 4.0 mg/kg free base s.c.", "result": "+56%"}, {"measurement": "mean change ± S.E. in electrical energy from pre-drug control, Δ band", "setting": "[1]; 4.0 mg/kg free base s.c.", "result": "+83 ± 13 instrument counts"}, {"measurement": "group percent change in electrical energy from pre-drug control, α band", "setting": "[1]; 0.5 mg/kg free base s.c.", "result": "+19%"}, {"measurement": "mean change ± S.E. in electrical energy from pre-drug control, α band", "setting": "[1]; 0.5 mg/kg free base s.c.", "result": "+23 ± 14 instrument counts"}, {"measurement": "group percent change in electrical energy from pre-drug control, α band", "setting": "[1]; 1.0 mg/kg free base s.c.", "result": "+25%"}, {"measurement": "mean change ± S.E. in electrical energy from pre-drug control, α band", "setting": "[1]; 1.0 mg/kg free base s.c.", "result": "+33 ± 8 instrument counts"}, {"measurement": "group percent change in electrical energy from pre-drug control, α band", "setting": "[1]; 4.0 mg/kg free base s.c.", "result": "+38%"}, {"measurement": "mean change ± S.E. in electrical energy from pre-drug control, α band", "setting": "[1]; 4.0 mg/kg free base s.c.", "result": "+33 ± 2 instrument counts"}, {"measurement": "group percent change in electrical energy from pre-drug control, β band", "setting": "[1]; 0.5 mg/kg free base s.c.", "result": "+6%"}, {"measurement": "mean change ± S.E. in electrical energy from pre-drug control, β band", "setting": "[1]; 0.5 mg/kg free base s.c.", "result": "+6 ± 5 instrument counts"}, {"measurement": "group percent change in electrical energy from pre-drug control, β band", "setting": "[1]; 1.0 mg/kg free base s.c.", "result": "+9%"}, {"measurement": "mean change ± S.E. in electrical energy from pre-drug control, β band", "setting": "[1]; 1.0 mg/kg free base s.c.", "result": "+13 ± 6 instrument counts"}, {"measurement": "group percent change in electrical energy from pre-drug control, β band", "setting": "[1]; 4.0 mg/kg free base s.c.", "result": -3, "unit": "%"}, {"measurement": "mean change ± S.E. in electrical energy from pre-drug control, β band", "setting": "[1]; 4.0 mg/kg free base s.c.", "result": "-3 ± 5", "unit": "instrument counts"}, {"measurement": "group percent change in electrical energy from pre-drug control, γ band", "setting": "[1]; 0.5 mg/kg free base s.c.", "result": -13, "unit": "%"}, {"measurement": "mean change ± S.E. in electrical energy from pre-drug control, γ band", "setting": "[1]; 0.5 mg/kg free base s.c.", "result": "-10 ± 4", "unit": "instrument counts"}, {"measurement": "group percent change in electrical energy from pre-drug control, γ band", "setting": "[1]; 1.0 mg/kg free base s.c.", "result": -10, "unit": "%"}, {"measurement": "mean change ± S.E. in electrical energy from pre-drug control, γ band", "setting": "[1]; 1.0 mg/kg free base s.c.", "result": "-10 ± 5", "unit": "instrument counts"}, {"measurement": "group percent change in electrical energy from pre-drug control, γ band", "setting": "[1]; 4.0 mg/kg free base s.c.", "result": -14, "unit": "%"}, {"measurement": "mean change ± S.E. in electrical energy from pre-drug control, γ band", "setting": "[1]; 4.0 mg/kg free base s.c.", "result": "-11 ± 3", "unit": "instrument counts"}, {"measurement": "group percent change in electrical energy from pre-drug control, θ band", "setting": "[1]; 0.5 mg/kg free base s.c.", "result": "+15%"}, {"measurement": "mean change ± S.E. in electrical energy from pre-drug control, θ band", "setting": "[1]; 0.5 mg/kg free base s.c.", "result": "+22 ± 15 instrument counts"}, {"measurement": "group percent change in electrical energy from pre-drug control, θ band", "setting": "[1]; 1.0 mg/kg free base s.c.", "result": "+20%"}, {"measurement": "mean change ± S.E. in electrical energy from pre-drug control, θ band", "setting": "[1]; 1.0 mg/kg free base s.c.", "result": "+28 ± 10 instrument counts"}, {"measurement": "group percent change in electrical energy from pre-drug control, θ band", "setting": "[1]; 4.0 mg/kg free base s.c.", "result": "+53%"}, {"measurement": "minimal effective dose", "setting": "[2]; Oryctolagus cuniculus, iv, rabbit cortex EEG, dose of free base, read-out: the minimum dose required to produce the EEG profile characteristic of that particular drug", "result": 0.25, "unit": "mg/kg"}, {"measurement": "relative potency by comparing minimal doses required to elicit EEG profiles", "setting": "[2]; rabbit cortex EEG, i.v.", "result": "approximately twice as potent as buspirone"}, {"measurement": "the no-effect dose", "setting": "[2]; rabbit cortex EEG, dose of free base", "result": "0.125† mg/kg, i.v."}, {"measurement": "EEG profile", "setting": "[2]; rabbit cortex, i.v.", "result": "completely different from that produced by stimulant drugs"}, {"measurement": "group percent change in electrical energy from pre-drug control, Δ band", "setting": "[2]; [3]", "result": "+15%"}, {"measurement": "mean change ± S.E. in electrical energy from pre-drug control, Δ band", "setting": "[2]; [3]", "result": "+30 ± 17 instrument counts"}, {"measurement": "group percent change in electrical energy from pre-drug control, Δ band", "setting": "[2]; [4]", "result": "+75%"}, {"measurement": "mean change ± S.E. in electrical energy from pre-drug control, Δ band", "setting": "[2]; [4]", "result": "+198 ± 51 instrument counts"}, {"measurement": "group percent change in electrical energy from pre-drug control, α band", "setting": "[2]; [3]", "result": "+14%"}, {"measurement": "mean change ± S.E. in electrical energy from pre-drug control, α band", "setting": "[2]; [3]", "result": "+21 ± 19 instrument counts"}, {"measurement": "group percent change in electrical energy from pre-drug control, α band", "setting": "[2]; [4]", "result": "+42%"}, {"measurement": "mean change ± S.E. in electrical energy from pre-drug control, α band", "setting": "[2]; [4]", "result": "+65 ± 18 instrument counts"}, {"measurement": "group percent change in electrical energy from pre-drug control, β band", "setting": "[2]; [3]", "result": "+10%"}, {"measurement": "mean change ± S.E. in electrical energy from pre-drug control, β band", "setting": "[2]; [3]", "result": "+12 ± 11 instrument counts"}, {"measurement": "group percent change in electrical energy from pre-drug control, β band", "setting": "[2]; [4]", "result": "+30%"}, {"measurement": "mean change ± S.E. in electrical energy from pre-drug control, β band", "setting": "[2]; [4]", "result": "+42 ± 13 instrument counts"}, {"measurement": "group percent change in electrical energy from pre-drug control, γ band", "setting": "[2]; [3]", "result": -3, "unit": "%"}, {"measurement": "mean change ± S.E. in electrical energy from pre-drug control, γ band", "setting": "[2]; [3]", "result": "-3 ± 2", "unit": "instrument counts"}, {"measurement": "group percent change in electrical energy from pre-drug control, γ band", "setting": "[2]; [4]", "result": "+5%"}, {"measurement": "mean change ± S.E. in electrical energy from pre-drug control, γ band", "setting": "[2]; [4]", "result": "+4 ± 1 instrument counts"}, {"measurement": "group percent change in electrical energy from pre-drug control, θ band", "setting": "[2]; [3]", "result": "+13%"}, {"measurement": "mean change ± S.E. in electrical energy from pre-drug control, θ band", "setting": "[2]; [3]", "result": "+20 ± 17 instrument counts"}, {"measurement": "group percent change in electrical energy from pre-drug control, θ band", "setting": "[2]; [4]", "result": "+33%"}, {"measurement": "mean change ± S.E. in electrical energy from pre-drug control, θ band", "setting": "[2]; [4]", "result": "+65 ± 22 instrument counts"}]}]}
